pIC50: −log10 of the molar value.

The values below come from patent US12486267B2, “Imidazo[1,2-A]pyridine and [1,2,4]triazolo[1,5-A]pyridine derivatives as TLR9 inhibitors for the treatment of fibrosis” (BRISTOL-MYERS SQUIBB COMPANY, priority 2020, dated 2025).

This assay concerns the target T1, human TLR9 (Homo sapiens, UniProt Q9NR96).
T1 sequence (Q9NR96 26-1032): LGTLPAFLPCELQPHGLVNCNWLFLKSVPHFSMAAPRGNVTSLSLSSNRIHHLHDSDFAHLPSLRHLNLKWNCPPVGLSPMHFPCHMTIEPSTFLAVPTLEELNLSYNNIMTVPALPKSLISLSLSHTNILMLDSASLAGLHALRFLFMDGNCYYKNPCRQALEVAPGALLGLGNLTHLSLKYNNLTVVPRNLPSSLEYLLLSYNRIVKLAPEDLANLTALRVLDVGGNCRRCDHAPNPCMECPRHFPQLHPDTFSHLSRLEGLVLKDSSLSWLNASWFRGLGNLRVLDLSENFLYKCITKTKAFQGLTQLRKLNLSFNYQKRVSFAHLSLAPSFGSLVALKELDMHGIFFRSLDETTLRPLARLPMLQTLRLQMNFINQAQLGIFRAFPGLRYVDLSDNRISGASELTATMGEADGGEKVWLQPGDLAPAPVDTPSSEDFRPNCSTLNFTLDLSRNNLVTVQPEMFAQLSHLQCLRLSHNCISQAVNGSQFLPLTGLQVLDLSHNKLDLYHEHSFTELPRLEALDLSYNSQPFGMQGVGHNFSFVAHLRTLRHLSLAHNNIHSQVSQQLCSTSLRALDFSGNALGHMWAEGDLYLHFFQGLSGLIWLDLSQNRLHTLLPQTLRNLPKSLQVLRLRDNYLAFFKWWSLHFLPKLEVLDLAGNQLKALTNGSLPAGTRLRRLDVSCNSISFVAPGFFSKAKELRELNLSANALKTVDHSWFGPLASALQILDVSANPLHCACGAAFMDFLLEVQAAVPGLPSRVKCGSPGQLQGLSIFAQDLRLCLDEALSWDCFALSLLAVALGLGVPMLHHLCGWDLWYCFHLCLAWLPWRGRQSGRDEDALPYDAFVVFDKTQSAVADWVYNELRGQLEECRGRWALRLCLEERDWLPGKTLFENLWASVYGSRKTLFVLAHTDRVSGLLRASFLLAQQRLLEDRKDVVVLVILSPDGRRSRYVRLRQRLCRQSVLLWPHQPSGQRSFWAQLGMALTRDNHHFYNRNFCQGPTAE
The assay can be described thus: TLR9 inhibition reporter assay (HEK-Blue cells, SEAP reporter). Type of assay: cell-based. Particulars: HEK-Blue cells overexpressing human TLR9; stimulated with ODN2006 5 nM; 22 hour incubation; SEAP readout. As for the experimental part:
TLR7/8/9 Inhibition Reporter Assays
HEK-Blue™-cells (Invivogen) overexpressing human TLR7, TLR8 or TLR9 receptors were used for screening inhibitors of these receptors using an inducible SEAP (secreted embryonic alkaline phosphatase) reporter gene under the control of the […] minimal promoter fused to five NF-κB and AP-1-binding sites. Briefly, cells are seeded into Greiner 384 well plates (15000 cells per well for TLR7, 20,000 for TLR8 and 25,000 for TLR9) and then treated with test compounds in DMSO to yield a final dose response concentration range of 0.05 nM-50 μM. After a 30 minute compound pre-treatment at room temperature, the cells are then stimulated with a TLR7 ligand (gardiquimod at a final concentration of 7.5 μM), TLR8 ligand (R848 at a final concentration of 15.9 μM) or TLR9 ligand (ODN2006 at a final concentration of 5 nM) to activate NF-κB and AP-1 which induce the production of SEAP. After a 22 hour incubation at 37° C., 5% CO2, SEAP levels are determined with the addition of HEK-Blue™ Detection reagent (Invivogen), a cell culture medium that allows for detection of SEAP, according to manufacturer's specifications. The percent inhibition is determined as the % reduction in the HEK-Blue signal present in wells treated with agonist plus DMSO alone compared to wells treated with a known inhibitor.
`COc1ccc(-c2nc3c(C)cc(C4CCN(C5CCN(C6CC6)CC5)CC4)cn3n2)cc1OC` [Example 157, 6-(1′-cyclopropyl-[1,4′-bipiperidin]-4-yl)-2-(3,4-dimethoxyphenyl)-8-methyl-[1,2,4]triazolo[1,5-a]pyridine] gave a pIC50 of 6.63.
In the case of `CC1CC(c2ccc(N3CCN(C(C)C)CC3)cc2)Cn2nc(-c3ccc(S(C)(=O)=O)cc3)nc21` (stereo not shown) [Example 150, 6-(4-(4-isopropylpiperazin-1-yl)phenyl)-8-methyl-2-(4-(methylsulfonyl)phenyl)-5,6,7,8-tetrahydro-[1,2,4]triazolo[1,5-a]pyridine] it was 4.68.
Turning to `Cc1cc(C2CCN(C3CC4CCC(C3)N4C(C)C)CC2)cn2cc(-c3ccc(S(C)(=O)=O)cc3)nc12` (single isomer, unassigned) [Example 62, 6-(1-(8-isopropyl-8-azabicyclo[3.2.1]octan-3-yl)piperidin-4-yl)-8-methyl-2-(4-(methylsulfonyl)phenyl)imidazo[1,2-a]pyridine], the pIC50 was 7.01.
Molecule `COc1ccc(-c2nc3c(C)cc(-c4ccc(N5CC6CCC(C5)N6C(C)C)cc4)cn3n2)cc1OC` [Example 151, 2-(3,4-dimethoxyphenyl)-6-(4-(8-isopropyl-3,8-diazabicyclo[3.2.1]octan-3-yl)phenyl)-8-methyl-[1,2,4]triazolo[1,5-a]pyridine] gave a pIC50 of 5.86.
The molecule `COc1ccc(-c2nc3c(C)cc(C4CCN(C5CCN(C(C)C)CC5)CC4)cn3n2)cc1OC` [Example 158, 2-(3,4-dimethoxyphenyl)-6-(1′-isopropyl-[1,4′-bipiperidin]-4-yl)-8-methyl-[1,2,4]triazolo[1,5-a] pyridine] showed a pIC50 of 6.82.
Molecule `COc1ccc(-c2nc3n(n2)CC(C2CC4CCC(C2)N4C2CCN(C(C)C)CC2)CC3)cc1OC` (stereo not shown) [Example 148, 2-(3,4-dimethoxyphenyl)-6-(8-(1-isopropylpiperidin-4-yl)-8-azabicyclo[3.2.1]octan-3-yl)-5,6,7,8-tetrahydro-[1,2,4]triazolo[1,5-a]pyridine] had a pIC50 of 6.52.
Molecule `COc1ccc(-c2nc3n(n2)CC(C2CC4CCC(C2)N4C2CCN(C4CC4)CC2)CC3)cc1OC` (stereo not shown) [Example 145, 6-(8-(1-cyclopropylpiperidin-4-yl)-8-azabicyclo[3.2.1]octan-3-yl)-2-(3,4-dimethoxyphenyl)-5,6,7,8-tetrahydro-[1,2,4]triazolo[1,5-a]pyridine] had a pIC50 of 6.47.
Molecule `CC(C)N1CCN(c2ccc(-c3ccc4nc(-c5ccc(S(C)(=O)=O)cc5)nn4c3)cc2)CC1` [Example 167, 6-(4-(4-isopropylpiperazin-1-yl)phenyl)-2-(4-(methylsulfonyl)phenyl)-[1,2,4]triazolo[1,5-a]pyridine] showed a pIC50 of 5.79.
In the case of `Cc1cc(C2CCN(C3CC4CCC(C3)N4CC3CC3)CC2)cn2cc(-c3ccc(S(C)(=O)=O)cc3)nc12` (single isomer, unassigned) [Example 88, 6-(1-(8-(cyclopropylmethyl)-8-azabicyclo[3.2.1]octan-3-yl)piperidin-4-yl)-8-methyl-2-(4-(methylsulfonyl)phenyl) imidazo[1,2-a]pyridine] it was 6.92.
With `COc1ccc(-c2nc3ccc(C4CC5CCC(C4)N5C4CCN(C5CC5)CC4)cn3n2)cc1OC` (stereo not shown) [Example 146, 6-(8-(1-cyclopropylpiperidin-4-yl)-8-azabicyclo[3.2.1]octan-3-yl)-2-(3,4-dimethoxyphenyl)-[1,2,4]triazolo[1,5-a]pyridine], the pIC50 is 6.11.
As for `COc1ccc(-c2nc3n(n2)CC(C2CCC(N4CCN(C(C)C)CC4)CC2)CC3C)cc1OC` (stereo not shown) [Example 143, 2-(3,4-dimethoxyphenyl)-6-(4-(4-isopropylpiperazin-1-yl)cyclohexyl)-8-methyl-5,6,7,8-tetrahydro-[1,2,4]triazolo[1,5-a]pyridine], the pIC50 was 5.13.
The result for `Cc1cc(C2CC3CCC(C2)N3C2CCN(C3CC3)CC2)cn2nc(-c3ccc(S(C)(=O)=O)cc3)nc12` (stereo not shown) [Example 159, 6-(8-(1-cyclopropylpiperidin-4-yl)-8-azabicyclo[3.2.1]octan-3-yl)-8-methyl-2-(4-(methylsulfonyl)phenyl)-[1,2,4]triazolo[1,5-a]pyridine] reads 6.23; that for `COc1ccc(-c2nc3ccc(C4CC5CCC(C4)N5C4CCN(C(C)C)CC4)cn3n2)cc1OC` (stereo not shown) [Example 149, 2-(3,4-dimethoxyphenyl)-6-(8-(1-isopropylpiperidin-4-yl)-8-azabicyclo[3.2.1]octan-3-yl)-[1,2,4]triazolo[1,5-a]pyridine], 6.66; that for `CC(C)CN1C2CCC1CC(N1CCC([C@@H]3CCc4nc(-c5ccc(S(C)(=O)=O)cc5)cn4C3)CC1)C2` (single isomer, unassigned) [Example 81], 8.04.
`Cc1cc(C2CCN(C3CC4CCC(C3)N4CC3CCC3)CC2)cn2cc(-c3ccc(S(C)(=O)=O)cc3)nc12` (single isomer, unassigned) [Example 90, 6-(1-(8-(cyclobutylmethyl)-8-azabicyclo[3.2.1]octan-3-yl)piperidin-4-yl)-8-methyl-2-(4-(methylsulfonyl)phenyl)imidazo[1,2-a]pyridine]: the pIC50 was 6.98.
`Cc1cc(C2CCN(C3CCN(C4CC4)CC3)CC2)cn2nc(-c3ccc(S(C)(=O)=O)cc3)nc12` [Example 161, 6-(1′-cyclopropyl-[1,4′-bipiperidin]-4-yl)-8-methyl-2-(4-(methylsulfonyl)phenyl)-[1,2,4]triazolo[1,5-a]pyridine] gave a pIC50 of 6.57.
`Cc1cc(C2CCN(C3CC4CCC(C3)N4C3CCC3)CC2)cn2cc(-c3ccc(S(C)(=O)=O)cc3)nc12` (single isomer, unassigned) [Example 83, 6-(1-(8-cyclobutyl-8-azabicyclo[3.2.1]octan-3-yl)piperidin-4-yl)-8-methyl-2-(4-(methylsulfonyl)phenyl)imidazo[1,2-a]pyridine] gave a pIC50 of 7.92.
In the case of `COc1ccc(-c2cn3cc(C4CC5CCC(C4)N5C4CCN(CC(C)C)CC4)cc(C)c3n2)cc1OC` (single isomer, unassigned) [Example 29, 2-(3,4-dimethoxyphenyl)-6-(8-(1-isobutylpiperidin-4-yl)-8-azabicyclo[3.2.1]octan-3-yl)-8-methylimidazo[1,2-a]pyridine] it was 8.00.
The result for `Cc1cc(-c2ccc(N3CCN(C(C)C)CC3)cc2)cn2nc(-c3ccc(S(C)(=O)=O)cc3)nc12` [Example 147, 6-(4-(4-isopropylpiperazin-1-yl)phenyl)-8-methyl-2-(4-(methylsulfonyl)phenyl)-[1,2,4]triazolo[1,5-a]pyridine] reads 6.04.
`COc1ccc(-c2cn3cc(C4CC5CCC(C4)N5C4CCN(CC(C)C)CC4)cc(C)c3n2)cc1OC` (single isomer, unassigned) [Example 28, 2-(3,4-dimethoxyphenyl)-6-(8-(1-isobutylpiperidin-4-yl)-8-azabicyclo[3.2.1]octan-3-yl)-8-methylimidazo[1,2-a]pyridine] showed a pIC50 of 8.10.
`Cc1cc(C2CCN(C3CC4CCC(C3)N4C3CCC3)CC2)cn2cc(-c3ccc(S(C)(=O)=O)cc3)nc12` (single isomer, unassigned) [Example 84, 6-(1-(8-cyclobutyl-8-azabicyclo[3.2.1]octan-3-yl)piperidin-4-yl)-8-methyl-2-(4-(methylsulfonyl)phenyl)imidazo[1,2-a]pyridine] showed a pIC50 of 7.68.
In the case of `Cc1cc(C2CCN(C3CC4CCC(C3)N4CC(C)C)CC2)cn2cc(-c3ccc(S(C)(=O)=O)cc3)nc12` (single isomer, unassigned) [Example 86, 6-(1-(8-isobutyl-8-azabicyclo[3.2.1]octan-3-yl)piperidin-4-yl)-8-methyl-2-(4-(methylsulfonyl)phenyl)imidazo[1,2-a]pyridine], the pIC50 is 6.99.
